{"source": "patent US20210361677A1", "about": "“DOSING METHODS FOR TREATING INFLAMMATORY BOWEL CONDITIONS” (priority 2020, published 2021)", "origin": "cited, not measured here", "conditions": "enema by prior methods, two patients, FIG. 1"}
{"smiles": "Nc1ccc(O)c(C(=O)O)c1", "note": "[5-ASA, 5-aminosalicylic acid]", "values": [{"measurement": "systemic (plasma) levels of 5-ASA after bowel movements", "value": "dramatically lower"}]}
